From ChEMBL document CHEMBL3046697, “Syntheses, antifeedant activity, and QSAR analysis of new oxa(thia)diazolyl 3(2H)-pyridazinones” (J Agric Food Chem, 2005)

Legend:
Mythimna separata = test: Antifeedant activity against second-instar larvae of Mythimna separata (Oriental armyworm) in compound treated leaves assessed as growth inhibition measured after 5 days by chronic growth bioassay; assay type: functional, organism-based; conditions: 120 h
[1] = Hydrophobicity, log P of the compound; assay type: physicochemical; conditions: octanol/water

| SMILES | EC50 (Mythimna separata; read-out: EC50) | EC50 (Mythimna separata; read-out: pEC50 (converted)) | logP [1] |
| --- | --- | --- | --- |
| CCn1ncc(OCc2nnc(-c3ccccc3)o2)c(Cl)c1=O | > 300 µg/mL | > 300 µM |  |
| CC(C)(C)n1ncc(OCc2nnc(-c3cc(F)c(Cl)cc3Cl)o2)c(Cl)c1=O | 23.1 µg/mL | 23.1 µM | 3.36 |
| CC(C)(C)n1ncc(OCc2nnc(-c3cc(F)c(Cl)c([N+](=O)[O-])c3Cl)o2)c(Cl)c1=O | > 300 µg/mL | > 300 µM |  |
| Cc1nnc(COc2cnn(C(C)(C)C)c(=O)c2Cl)o1 | > 300 µg/mL | > 300 µM |  |
| COc1c(F)c(F)cc(-c2nnc(COc3cnn(C(C)(C)C)c(=O)c3Cl)o2)c1F | > 300 µg/mL | > 300 µM |  |
| CC(C)(C)n1ncc(SCc2nnc(-c3ccc(Cl)cc3)o2)c(Cl)c1=O | 180 µg/mL | 180 µM |  |
| CC(C)(C)n1ncc(OCc2nnc(-c3ccc(Br)cc3)o2)c(Cl)c1=O | 21.4 µg/mL | 21.4 µM | 3.21 |
| Cc1cc(C)cc(-c2nnc(CSc3cnn(C(C)(C)C)c(=O)c3Cl)o2)c1 | > 300 µg/mL | > 300 µM |  |
| C/C=C(\C)C(=O)O[C@H]1C[C@@H](OC(C)=O)[C@@]2(C(=O)OC)CO[C@H]3[C@@H](O)[C@@](C)([C@]45O[C@@]4(C)[C@@H]4C[C@H]5O[C@@H]5OC=C[C@@]54O)[C@H]4[C@]1(CO[C@]4(O)C(=O)OC)[C@@H]32 [AZADIRACHTIN A] | 0.58 µg/mL | 0.579 µM |  |
| CC(C)(C)n1ncc(OCc2nnc(-c3ccccc3F)o2)c(Cl)c1=O | 16.8 µg/mL | 16.8 µM | 2.89 |
| CC(C)(C)n1ncc(OCc2nnc(-c3c(F)c(F)c(F)c(F)c3F)o2)c(Cl)c1=O | 271 µg/mL | 271 µM | 3.06 |
| CC(C)(C)n1ncc(OCc2nnc(-c3ccco3)o2)c(Cl)c1=O | > 300 µg/mL | > 300 µM |  |
| CCCCn1ncc(OCc2nnc(-c3ccccc3)o2)c(Cl)c1=O | > 300 µg/mL | > 300 µM |  |
| CC(C)(C)n1ncc(OCc2nnc(-c3ccc(Cl)cc3)o2)c(Cl)c1=O | 1.9 µg/mL | 1.9 µM | 3.09 |
| O=c1c(Cl)c(OCc2nnc(-c3ccccc3)o2)cnn1-c1ccccc1 | 91.5 µg/mL | 91.4 µM |  |
| CC(C)(C)n1ncc(OCc2nnc(-c3ccc([N+](=O)[O-])cc3)o2)c(Cl)c1=O | > 300 µg/mL | > 300 µM |  |
| CC(C)(C)n1ncc(OCc2nnc(-c3cc(F)c(F)cc3F)o2)c(Cl)c1=O | 75.7 µg/mL | 75.7 µM | 2.96 |
| Cc1cc(C)cc(-c2nnc(COc3cnn(C(C)(C)C)c(=O)c3Cl)s2)c1 | > 300 µg/mL | > 300 µM |  |
| CC(C)(C)n1ncc(OCc2nnc(-c3ccc(Cl)cc3Cl)o2)c(Cl)c1=O | 27.8 µg/mL | 27.8 µM | 3.52 |
| CC(C)(C)n1ncc(OCc2nnc(-c3ccc(Cl)cc3F)o2)c(Cl)c1=O | 10.4 µg/mL | 10.4 µM | 3.23 |
| Cc1cc(C)cc(-c2nnc(COc3cnn(C(C)(C)C)c(=O)c3Cl)o2)c1 | > 300 µg/mL | > 300 µM |  |
| CC(C)(C)n1ncc(SCc2nnc(-c3ccccc3F)o2)c(Cl)c1=O | 269 µg/mL | 270 µM |  |
| CC(C)(C)n1ncc(OCc2nnc(-c3ccccc3)o2)c(Cl)c1=O | 12.2 µg/mL | 12.2 µM | 2.95 |
| CC(C)(C)n1ncc(SCc2nnc(-c3ccccc3)o2)c(Cl)c1=O | > 300 µg/mL | > 300 µM |  |
| CCn1ncc(OCc2nnc(-c3ccc(F)cc3)o2)c(Cl)c1=O | > 300 µg/mL | > 300 µM |  |
